The target in experiment [1] is T1, RNA-binding protein pos-1 (Caenorhabditis elegans, UniProt G5EF15).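 Note: purified POS-1 fused to maltose binding protein made in E. coli; potency of compounds blocking POS-1 binding to fluorescent RNA.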
T1 sequence (G5EF15 whole entry): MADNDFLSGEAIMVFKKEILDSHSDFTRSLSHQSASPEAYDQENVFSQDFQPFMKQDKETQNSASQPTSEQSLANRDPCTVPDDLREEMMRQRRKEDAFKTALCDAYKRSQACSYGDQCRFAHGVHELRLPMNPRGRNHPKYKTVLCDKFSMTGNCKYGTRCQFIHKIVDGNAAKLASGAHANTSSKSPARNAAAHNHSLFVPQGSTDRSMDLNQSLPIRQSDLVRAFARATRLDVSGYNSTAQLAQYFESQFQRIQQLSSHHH
Briefly: inhibitors of POS-1/mex-3 RNA binding, dose response, biochemical, fluorescence polarization (AID 1964). (In general: Fluorescence polarisation rises when a labelled molecule tumbles more slowly, as on binding a larger partner.)

For experiment [2], the target named is T2, Zinc finger protein mex-5 (Caenorhabditis elegans, UniProt Q9XUB2).
T2 sequence (Q9XUB2 whole entry): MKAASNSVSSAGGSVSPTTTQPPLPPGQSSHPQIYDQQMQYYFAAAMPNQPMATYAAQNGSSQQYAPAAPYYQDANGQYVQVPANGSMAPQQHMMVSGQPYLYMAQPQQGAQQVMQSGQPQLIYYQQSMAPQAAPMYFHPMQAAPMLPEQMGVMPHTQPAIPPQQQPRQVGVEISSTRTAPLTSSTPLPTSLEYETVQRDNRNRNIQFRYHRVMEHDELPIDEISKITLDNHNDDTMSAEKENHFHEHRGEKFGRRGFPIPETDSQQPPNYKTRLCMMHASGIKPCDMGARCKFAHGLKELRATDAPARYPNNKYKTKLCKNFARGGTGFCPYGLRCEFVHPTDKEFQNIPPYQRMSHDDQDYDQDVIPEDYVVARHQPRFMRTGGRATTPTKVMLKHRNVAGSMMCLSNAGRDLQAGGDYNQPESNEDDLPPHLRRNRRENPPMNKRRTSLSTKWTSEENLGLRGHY
Description: MEX-5/TCR-2 RNA interaction inhibitors, dose response, biochemical, C. elegans, fluorescence polarization (AID 1960).

The target of the next experiment is Keap1/Nrf2 (Homo sapiens, UniProt Q14145). Briefly: Keap1-Nrf2 protein-protein interaction inhibitors, dose response, biochemical, fluorescence polarization, cherry-picked samples (AID 588683).
Experiment [3] addresses Dual specificity protein phosphatase 3 (Homo sapiens, UniProt P51452). Description: VHR1 phosphatase inhibitors, primary screen, biochemical, absorbance, uHTS (AID 1654).
Experiment [4] has as its target T3, Dual specificity protein phosphatase 6 (Rattus norvegicus, UniProt Q64346).
T3 sequence (Q64346 whole entry): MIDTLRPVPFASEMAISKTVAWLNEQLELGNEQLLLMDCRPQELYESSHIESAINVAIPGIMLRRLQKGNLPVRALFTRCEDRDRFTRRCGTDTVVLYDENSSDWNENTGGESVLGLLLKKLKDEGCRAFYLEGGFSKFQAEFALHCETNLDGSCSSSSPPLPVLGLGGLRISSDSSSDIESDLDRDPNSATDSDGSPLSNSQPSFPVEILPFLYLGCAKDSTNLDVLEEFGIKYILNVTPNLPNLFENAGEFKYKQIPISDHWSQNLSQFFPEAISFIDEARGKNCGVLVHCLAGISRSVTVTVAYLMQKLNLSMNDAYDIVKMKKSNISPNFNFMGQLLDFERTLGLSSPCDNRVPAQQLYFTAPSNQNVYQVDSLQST
Description: MKP-3 phosphatase inhibitors, primary screen, biochemical, rat enzyme, in vitro (AID 425).

Experiment [5] deals with T4, Tyrosine-protein phosphatase non-receptor type 22 (Homo sapiens, UniProt Q9Y2R2).
T4 sequence (Q9Y2R2 whole entry): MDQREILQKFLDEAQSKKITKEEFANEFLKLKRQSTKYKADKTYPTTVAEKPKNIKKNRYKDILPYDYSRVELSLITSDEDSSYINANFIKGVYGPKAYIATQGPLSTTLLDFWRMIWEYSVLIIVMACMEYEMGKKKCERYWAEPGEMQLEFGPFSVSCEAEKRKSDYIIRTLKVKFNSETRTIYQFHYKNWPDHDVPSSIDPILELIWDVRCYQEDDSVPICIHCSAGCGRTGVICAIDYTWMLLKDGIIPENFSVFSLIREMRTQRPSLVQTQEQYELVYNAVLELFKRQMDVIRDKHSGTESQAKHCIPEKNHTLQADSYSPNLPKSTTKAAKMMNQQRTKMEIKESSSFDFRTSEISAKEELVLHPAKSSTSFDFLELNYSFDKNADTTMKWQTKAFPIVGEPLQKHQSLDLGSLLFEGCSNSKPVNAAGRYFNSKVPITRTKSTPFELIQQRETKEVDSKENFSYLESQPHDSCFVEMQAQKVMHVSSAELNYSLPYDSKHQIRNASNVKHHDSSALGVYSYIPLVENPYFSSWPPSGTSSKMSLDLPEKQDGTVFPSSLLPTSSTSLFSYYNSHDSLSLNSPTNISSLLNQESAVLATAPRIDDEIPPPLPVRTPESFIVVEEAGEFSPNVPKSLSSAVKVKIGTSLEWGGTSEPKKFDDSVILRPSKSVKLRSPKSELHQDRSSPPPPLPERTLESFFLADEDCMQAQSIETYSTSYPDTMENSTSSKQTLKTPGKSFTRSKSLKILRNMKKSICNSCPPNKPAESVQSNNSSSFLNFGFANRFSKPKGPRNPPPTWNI
It is filed as functional.

Experiment [6] has as its target Probable nicotinate-nucleotide adenylyltransferase (Staphylococcus aureus (strain N315), UniProt P65502). It is filed as functional, Staphylococcus aureus subsp. aureus N315.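 Note: confirmatory retest of primary uHTS inhibitor hits against NadD over a range of doses.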
For the next experiment, the system named is BJ. Description: cells. As to conditions: Homo sapiens. It is filed as functional, cell-based.
Experiment [7] concerns the target T5, Kappa-type opioid receptor (Homo sapiens, UniProt P41145). It is filed as functional.
Experiment [8] has as its target T5, Kappa-type opioid receptor. It is filed as functional. The source holds these as a separate data set.
In experiment [9] the target is Glucose-6-phosphate 1-dehydrogenase (Homo sapiens, UniProt P11413). Briefly: human G6PD enzyme inhibitors, dose response, selectivity assay for P. falciparum G6PD inhibitor project, biochemical, fluorescence (AID 504792). It is filed as functional.
The nature of experiment [10]: cytotoxicity in HEK-293T NF-kB-Luc cells, dose response, cytotoxicity control for B/T-cell NF-kB inhibitor project, cell-based, uHTS hits (AID 489019).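 Note: IC50 reflects cytotoxicity as loss of cell viability.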 Type of experiment: functional.
A further experiment has as its system CHO. Description: cytotoxicity in TLR9-MyD88 CHO cells, dose response, cytotoxicity control for TLR9-MyD88 binding inhibitor project, cell-based, luminescence (AID 588339).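 Note: CHO cells stably coexpressing TLR9 and MyD88 fusions from primary screen; compound exposure lasted 48 hours before viability readout.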 It is filed as functional, hamster. As to conditions: Cricetulus griseus.
A further experiment has as its target Beta Lactamase (Pseudomonas aeruginosa, UniProt Q932Y6). Briefly: beta-lactamase reporter inhibitor potency, dose response, artefact control for TLR9-MyD88 binding inhibitor project, BLA reporter cells, FRET fluorescence (AID 588341).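 Note: cell based assay in CHO-K1 cells stably expressing beta-lactamase.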 It is filed as cell-based.
The next experiment relates to INS1. Briefly: beta cell apoptosis inhibitors, cytokine rescue, dose response, luminescence, retest (AID 449756).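 Note: cell death triggered by IL-1 beta plus TNF-alpha plus IFN-gamma mixture; protective hits raise ATP signal compared with cytokine alone wells.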 Type of experiment: functional, cell-based. As to conditions: Rattus norvegicus.

Calls of active or inactive are those of the source. Some results are limits rather than exact numbers.

Usually EC50 stands for the concentration that produces a half-maximal response. The AC50 is the concentration at which the activity in the assay is half-maximal. A word on the IC50: it is the point on the concentration scale where inhibition reaches its midpoint.

T5 sequence (P41145 whole entry): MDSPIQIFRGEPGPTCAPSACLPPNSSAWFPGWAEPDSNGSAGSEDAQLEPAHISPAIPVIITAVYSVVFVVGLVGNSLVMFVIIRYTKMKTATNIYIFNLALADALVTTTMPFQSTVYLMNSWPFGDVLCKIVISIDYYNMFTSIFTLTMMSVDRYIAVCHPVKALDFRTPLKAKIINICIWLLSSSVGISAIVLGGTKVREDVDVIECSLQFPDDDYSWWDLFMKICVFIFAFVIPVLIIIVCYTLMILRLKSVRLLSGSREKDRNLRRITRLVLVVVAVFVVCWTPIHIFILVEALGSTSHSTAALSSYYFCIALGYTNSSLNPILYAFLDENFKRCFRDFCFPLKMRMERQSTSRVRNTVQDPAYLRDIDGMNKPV
Glucose-6-phosphate 1-dehydrogenase, sequence (P11413 whole entry): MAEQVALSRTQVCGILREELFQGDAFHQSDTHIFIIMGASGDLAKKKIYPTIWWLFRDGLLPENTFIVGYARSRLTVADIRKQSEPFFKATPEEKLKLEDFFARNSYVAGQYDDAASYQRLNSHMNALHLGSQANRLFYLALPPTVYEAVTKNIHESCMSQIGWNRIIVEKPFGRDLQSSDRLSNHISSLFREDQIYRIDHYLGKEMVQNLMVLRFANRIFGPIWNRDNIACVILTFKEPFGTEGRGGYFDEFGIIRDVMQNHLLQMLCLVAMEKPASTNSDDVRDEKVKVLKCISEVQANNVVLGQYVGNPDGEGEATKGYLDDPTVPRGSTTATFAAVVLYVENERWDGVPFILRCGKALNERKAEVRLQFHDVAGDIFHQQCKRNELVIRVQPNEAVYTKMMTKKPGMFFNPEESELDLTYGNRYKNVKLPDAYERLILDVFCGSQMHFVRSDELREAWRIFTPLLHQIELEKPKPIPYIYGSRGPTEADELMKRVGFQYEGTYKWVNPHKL
Keap1/Nrf2, sequence (Q16236 whole entry): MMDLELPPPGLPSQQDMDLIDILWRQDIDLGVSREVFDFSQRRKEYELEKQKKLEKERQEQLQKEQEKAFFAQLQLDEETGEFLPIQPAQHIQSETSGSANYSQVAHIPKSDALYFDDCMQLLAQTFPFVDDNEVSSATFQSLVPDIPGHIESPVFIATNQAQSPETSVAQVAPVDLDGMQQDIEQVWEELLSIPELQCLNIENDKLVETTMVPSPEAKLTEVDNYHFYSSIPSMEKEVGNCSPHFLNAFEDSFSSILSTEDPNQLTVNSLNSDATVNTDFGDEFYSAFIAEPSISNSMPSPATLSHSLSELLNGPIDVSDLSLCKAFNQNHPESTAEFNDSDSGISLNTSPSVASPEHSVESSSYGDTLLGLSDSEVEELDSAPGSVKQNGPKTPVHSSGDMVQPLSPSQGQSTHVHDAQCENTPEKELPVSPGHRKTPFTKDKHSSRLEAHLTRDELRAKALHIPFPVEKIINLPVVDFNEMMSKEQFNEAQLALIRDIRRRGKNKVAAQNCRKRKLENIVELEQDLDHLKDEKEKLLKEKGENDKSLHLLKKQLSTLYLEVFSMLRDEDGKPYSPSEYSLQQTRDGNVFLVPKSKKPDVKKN
Keap1/Nrf2, sequence (Q14145 whole entry): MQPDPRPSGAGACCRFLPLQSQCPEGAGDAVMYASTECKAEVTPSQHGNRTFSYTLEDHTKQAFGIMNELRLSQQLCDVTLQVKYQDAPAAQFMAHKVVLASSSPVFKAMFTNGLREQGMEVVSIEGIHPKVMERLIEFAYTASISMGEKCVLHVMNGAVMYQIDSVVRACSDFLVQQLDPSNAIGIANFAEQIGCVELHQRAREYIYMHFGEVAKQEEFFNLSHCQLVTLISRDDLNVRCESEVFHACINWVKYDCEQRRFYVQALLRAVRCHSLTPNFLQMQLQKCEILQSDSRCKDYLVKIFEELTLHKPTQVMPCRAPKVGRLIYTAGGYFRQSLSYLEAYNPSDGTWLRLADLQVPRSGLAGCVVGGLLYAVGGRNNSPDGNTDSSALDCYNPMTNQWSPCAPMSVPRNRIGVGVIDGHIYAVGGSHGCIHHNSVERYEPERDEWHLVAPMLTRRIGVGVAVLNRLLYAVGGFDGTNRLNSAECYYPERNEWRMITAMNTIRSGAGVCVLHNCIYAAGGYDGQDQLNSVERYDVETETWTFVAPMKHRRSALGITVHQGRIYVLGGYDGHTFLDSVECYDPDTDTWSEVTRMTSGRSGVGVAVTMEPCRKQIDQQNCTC
Beta Lactamase, sequence (Q932Y6 whole entry): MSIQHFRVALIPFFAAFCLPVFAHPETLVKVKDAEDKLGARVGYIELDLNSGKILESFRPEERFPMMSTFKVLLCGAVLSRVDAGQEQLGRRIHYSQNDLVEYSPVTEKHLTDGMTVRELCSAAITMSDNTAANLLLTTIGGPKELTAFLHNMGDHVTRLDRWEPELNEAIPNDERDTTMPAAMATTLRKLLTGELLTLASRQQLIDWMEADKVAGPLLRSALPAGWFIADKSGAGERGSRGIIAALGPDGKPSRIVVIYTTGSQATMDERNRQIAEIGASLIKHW
Dual specificity protein phosphatase 3, sequence (P51452 whole entry): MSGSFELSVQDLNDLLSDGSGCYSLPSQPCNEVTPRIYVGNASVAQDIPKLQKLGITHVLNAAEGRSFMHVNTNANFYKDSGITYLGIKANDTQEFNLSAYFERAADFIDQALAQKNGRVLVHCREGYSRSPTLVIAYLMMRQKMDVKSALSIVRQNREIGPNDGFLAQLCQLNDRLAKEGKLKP
Probable nicotinate-nucleotide adenylyltransferase, sequence (P65502 whole entry): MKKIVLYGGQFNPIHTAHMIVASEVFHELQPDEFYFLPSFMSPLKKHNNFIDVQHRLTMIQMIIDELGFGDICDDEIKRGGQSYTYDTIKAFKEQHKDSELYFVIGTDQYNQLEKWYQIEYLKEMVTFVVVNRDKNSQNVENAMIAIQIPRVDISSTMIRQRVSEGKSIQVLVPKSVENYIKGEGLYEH

On to `CCN(CC)CCN1C(=O)c2cccc3cc(N)cc(c23)C1=O`, for which the EC50 in experiment [1] was 6.62 µM (active); in experiment [2] it was 5.13 µM (inconclusive). In addition, the AC50 on Keap1/Nrf2 was > 52 µM (inactive).
For `O=C(O)c1cccc(-n2cccc2/C=C2/NC(=O)N(c3ccc(Cl)cc3)C2=O)c1`, the IC50 in experiment [3] is < 0.98 µM (inactive); in [4], 3.28 µM (active); in experiment [5], 2.44 µM (active); in experiment [6] it was 11.1 µM (active).
For `C=C1C(=O)O[C@@H]2C[C@@H](C)[C@@H]3C=CC(=O)[C@@]3(C)[C@@H](OC(=O)CC(=O)O[C@H]3[C@@H]4C(=C)C(=O)O[C@@H]4C[C@@H](C)[C@@H]4C=CC(=O)[C@]43C)[C@H]12`, the EC50 in the experiment with BJ was 5.4 µM (inconclusive). The IC50 in [7] is 13.4 µM (active); in experiment [8], 9.14 µM; in experiment [9] it was > 80 µM (inactive); in [10] it was > 80 µM (inactive); with CHO it was 0.147 µM (active); on Beta Lactamase, 17.9 µM (inactive). For the same molecule, in the experiment with INS1, the AC50 is 0.312 µM (active).

Source of the values: ChEMBL document CHEMBL1201862, “PubChem BioAssay data set” (2004).
